≈ marks a conversion by molar mass, not a printed value. Read-outs that look alike come from different tables or passages of the source. Marks after values point to notes of the source that are not given here. Starred links: 1 amine or outer side, 2 acyl side, 3 side chain; linkers in the order of their positions; H or OH if unused. Positions of bridges follow the written chain, without caps; N, C: chain ends. Non-standard residues stand in square brackets, D forms with d. Residues, ends and D or L forms follow the SMILES beside them. Chains are numbered I, II in the order given. *: point of attachment. X1 = CC(=O)N[C@@H](CCCCN[*:3])C(=O)NCCC(=O)N[C@@H](CCCCN[*:2])C(=O)NCCC(=O)N[C@@H](CCCCN[*:1])C(N)=O; X2 = CC[C@H](C)CCCCC(=O)*; Orn = NCCC[C@H](N)C(=O)O; Dab = NCC[C@H](N)C(=O)O; βAla = NCCC(=O)O
Columns and labels:
Type in all cases: cell-based
[1] = tested on: S. enterica (ATCC700720)
Description: (§1) MICs were determined by broth microdilution on different bacteria according to the Clinical and Laboratory Standards Institute. […] The absorbance was measured after peptide addition at 600 nm using a Victor 2 plate reader (Perkin-Elmer).

[2] = tested on: B. subtilis (ATCC6633)
Description: (§2) MICs were determined by broth microdilution on different bacteria according to the Clinical and Laboratory Standards Institute. Typically, 100 μL of 0.5–1 × 10^6 CFU mL^–1 of each bacterium in Mueller Hinton media broth (Oxoid) were incubated in 96-well microtitre plates with 100 μL of serial two-fold dilutions of the peptides (from 100 to 0 μM) at 37 °C on a 3D orbital shaker. The absorbance was measured after peptide addition at 600 nm using a Victor 2 plate reader (Perkin-Elmer). MICs were defined as the lowest peptide concentration after 24 h at 37 °C.

[3] = tested on: E. coli (K12)
Description: as §2

[4] = tested on: E. faecalis (OG1X)
Description: as §2

[5] = tested on: P. aeruginosa (ATCC27853)
Description: as §2

[6] = tested on: S. aureus (ATCC6538)
Description: as §2

[7] = tested on: Human erythrocytes; test: Haemolysis assay; settings: 10% (vol/vol) human erythrocytes in PBS pH 7.2, 1 h at room temperature, absorbance 550 nm; triplicates
Description: Haemolysis was determined by incubating a 10% (vol/vol) suspension of human erythrocytes with peptides. Erythrocytes were rinsed four times in 10 mM phosphate buffer saline (PBS), pH 7.2, by repeated centrifugation and re-suspension (3 min at 3000×g). Erythrocytes were incubated at room temperature for 1 h in either deionised water (fully haemolysed control), PBS, or with peptide in PBS. After centrifugation at 10,000×g for 5 min, the supernatant was separated from the pellet, and the absorbance was measured at 550 nm. Absorbance of the suspension treated with deionised water defined complete haemolysis.

[8] = tested on: K. pneumoniae (NCTC 5055)
Description: as §1, with “(Perkin-Elmer). MICs were defined as the lowest peptide concentration after 24 h at 37 °C.” for “(Perkin-Elmer).”

[9] = S. enterica (ATCC700720), Mueller Hinton broth, 0.5–1 × 10^6 CFU mL–1, 24 h at 37 °C, absorbance 600 nm, total peptide concentration, triplicates

Molecule: CCCCCCCCCC(=O)N[C@@H](Cc1c[nH]c2ccccc12)C(=O)N[C@H](CC(N)=O)C(=O)N[C@@H](CC(=O)O)C(=O)N[C@@H]1C(=O)NCC(=O)N[C@@H](CCCN)C(=O)N[C@@H](CC(=O)O)C(=O)N[C@H](C)C(=O)N[C@@H](CC(=O)O)C(=O)NCC(=O)N[C@H](CO)C(=O)N[C@@H]([C@H](C)CC(=O)O)C(=O)N[C@@H](CC(=O)c2ccccc2N)C(=O)O[C@@H]1C [Daptomycin]
- Minimum inhibitory concentrations [1, 9]: >50 µM
- Minimum inhibitory concentrations ([2]; ATCC6633, 24 h): <8 µM
- Minimum inhibitory concentrations ([3]; K12, 24 h): >100 µM
- Minimum inhibitory concentrations ([4]; OG1X, 24 h): >100 µM
- Minimum inhibitory concentrations ([5]; ATCC27853, 24 h): >100 µM
- Minimum inhibitory concentrations ([6]; ATCC6538, 24 h): <8 µM
- LC50, median (50%) cell death compared to untreated cells [7]: >250^d µM

Molecule: CC(C)C[C@@H]1NC(=O)[C@H](CCCN)NC(=O)[C@H](C(C)C)NC(=O)[C@@H]2CCCN2C(=O)[C@@H](Cc2ccccc2)NC(=O)[C@H](CC(C)C)NC(=O)[C@H](CCCN)NC(=O)[C@H](C(C)C)NC(=O)[C@@H]2CCCN2C(=O)[C@@H](Cc2ccccc2)NC1=O [Gramicidin S] (cyclo(V[Orn]L[dF]PV[Orn]L[dF]P))
- Minimum inhibitory concentrations [1, 9]: <10 µM
- Minimum inhibitory concentrations ([2]; ATCC6633, 24 h): >40 µM
- Minimum inhibitory concentrations ([3]; K12, 24 h): <20 µM
- Minimum inhibitory concentrations ([5]; ATCC27853, 24 h): >40 µM
- Minimum inhibitory concentrations ([6]; ATCC6538, 24 h): <20 µM
- LC50, median (50%) cell death compared to untreated cells [7]: >20 µM

Molecule: CC[C@H](C)CCCCC(=O)N[C@@H](CCN)C(=O)N[C@H](C(=O)N[C@@H](CCN)C(=O)N[C@H]1CCNC(=O)[C@H]([C@@H](C)O)NC(=O)[C@H](CCN)NC(=O)[C@H](CCN)NC(=O)[C@H](CC(C)C)NC(=O)[C@@H](Cc2ccccc2)NC(=O)[C@H](CCN)NC1=O)[C@@H](C)O [Polymyxin B] (X2-[Dab]T[Dab][Dab][Dab][dF]L[Dab][Dab]T; lactam 4-C (inferred); N-terminus assumed)
- Minimum inhibitory concentrations [1, 9]: <1 µM
- Minimum inhibitory concentrations ([2]; B. subtilis (ATCC6633), Mueller Hinton broth, 0.5–1 × 10^6 CFU mL–1, 24 h at 37 °C, absorbance 600 nm, total peptide concentration, triplicates): 1.5 µM (≈ 1.81 µg/mL)
- Minimum inhibitory concentrations ([3]; E. coli (K12), Mueller Hinton broth, 0.5–1 × 10^6 CFU mL–1, 24 h at 37 °C, absorbance 600 nm, total peptide concentration, triplicates): <1 µM
- Minimum inhibitory concentrations ([4]; E. faecalis (OG1X), Mueller Hinton broth, 0.5–1 × 10^6 CFU mL–1, 24 h at 37 °C, absorbance 600 nm, total peptide concentration, triplicates): >100 µM
- Minimum inhibitory concentrations ([5]; P. aeruginosa (ATCC27853), Mueller Hinton broth, 0.5–1 × 10^6 CFU mL–1, 24 h at 37 °C, absorbance 600 nm, total peptide concentration, triplicates): <1 µM
- Minimum inhibitory concentrations ([6]; S. aureus (ATCC6538), Mueller Hinton broth, 0.5–1 × 10^6 CFU mL–1, 24 h at 37 °C, absorbance 600 nm, total peptide concentration, triplicates): <50 µM
- Minimum inhibitory concentrations ([8]; K. pneumoniae (NCTC 5055), Mueller Hinton broth, 0.5–1 × 10^6 CFU mL–1, 24 h at 37 °C, absorbance 600 nm, total peptide concentration, triplicates): <1 µM

Molecule: I: H-KIAKLKQKIQKLKAKIAKLKQ[βAla][βAla] / II: H-KIAKLKQKIQKLKAKIAKLKQ[βAla][βAla] / III: H-KIAKLKQKIQKLKAKIAKLKQ[βAla][βAla] (linker I:C-II:C-III:C via X1) [C 3 (+) strand]
- Minimum inhibitory concentrations ([1]; ATCC700720, 24 h): 3 µM
- Minimum inhibitory concentrations ([2]; ATCC6633, 24 h): 1.5 µM
- Minimum inhibitory concentrations ([3]; K12, 24 h): 1.5 µM
- Minimum inhibitory concentrations ([4]; OG1X, 24 h): 50 µM
- Minimum inhibitory concentrations ([5]; ATCC27853, 24 h): 3 µM
- Minimum inhibitory concentrations ([6]; ATCC6538, 24 h): 50 µM
- Minimum inhibitory concentrations ([8]; NCTC 5055, 24 h): >12 µM

— PMC5741663, “Antimicrobial peptide capsids of de novo design” (Nature Communications, 2017)
